Measured values as given in patent US12162888B2, “Carboxamides as ubiquitin-specific protease inhibitors” (Valo Early Discovery, Inc., priority 2018, dated 2024).

Each compound was assayed against T1, USP28 (His-tagged USP28-FL-mammalian) (Homo sapiens, UniProt Q96RU2) (assay: Ubiquitin-Rhodamine 110 Assay for USP28 Activity, Example A-1(a)). Settings: Ubiquitin-Rhodamine 110 assay, IC50 ranges, read-out: USP28 A-1(a) IC50.
T1 construct: Expression of USP28 (1-1077)-TEV-6*His (pTT5 vector) was carried out in Expi293f cells; made in house; host or cells: Expi293F cells (pTT5 vector)
T1 sequence (Q96RU2 1-1077): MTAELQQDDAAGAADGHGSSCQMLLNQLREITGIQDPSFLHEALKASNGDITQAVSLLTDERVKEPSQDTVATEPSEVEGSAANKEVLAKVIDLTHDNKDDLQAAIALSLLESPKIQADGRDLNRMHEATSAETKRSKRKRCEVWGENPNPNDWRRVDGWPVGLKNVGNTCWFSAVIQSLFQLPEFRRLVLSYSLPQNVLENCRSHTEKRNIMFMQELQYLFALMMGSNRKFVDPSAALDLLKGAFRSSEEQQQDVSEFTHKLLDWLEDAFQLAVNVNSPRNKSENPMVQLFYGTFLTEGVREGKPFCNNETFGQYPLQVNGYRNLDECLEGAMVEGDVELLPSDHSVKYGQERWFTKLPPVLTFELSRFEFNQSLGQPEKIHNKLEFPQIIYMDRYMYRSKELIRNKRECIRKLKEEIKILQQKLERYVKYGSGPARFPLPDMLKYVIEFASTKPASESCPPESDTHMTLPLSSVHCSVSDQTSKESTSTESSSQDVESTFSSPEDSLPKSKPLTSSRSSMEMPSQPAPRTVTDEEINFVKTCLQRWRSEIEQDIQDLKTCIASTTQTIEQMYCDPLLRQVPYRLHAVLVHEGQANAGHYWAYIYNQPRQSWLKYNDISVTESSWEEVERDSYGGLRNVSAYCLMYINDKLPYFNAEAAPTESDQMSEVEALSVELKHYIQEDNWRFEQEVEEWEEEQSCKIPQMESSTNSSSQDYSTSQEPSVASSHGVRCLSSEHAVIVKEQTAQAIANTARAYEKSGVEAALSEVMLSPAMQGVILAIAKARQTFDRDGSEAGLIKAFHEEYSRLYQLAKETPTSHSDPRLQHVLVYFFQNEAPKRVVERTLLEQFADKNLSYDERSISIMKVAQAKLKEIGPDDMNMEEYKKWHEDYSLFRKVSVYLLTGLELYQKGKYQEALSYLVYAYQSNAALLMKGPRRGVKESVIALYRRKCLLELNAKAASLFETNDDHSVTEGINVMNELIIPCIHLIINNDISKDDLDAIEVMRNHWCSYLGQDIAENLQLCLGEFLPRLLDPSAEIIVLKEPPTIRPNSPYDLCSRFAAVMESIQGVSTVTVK
Assay type: biochemical
In short: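 IC50s were fitted with a 4-parameter logistic to percent inhibition relative to no-enzyme and DMSO controls, using Rhodamine 110 fluorescence (485/535 nm) released from 25 nM Ub-Rh110. The enzyme was Expi293F-expressed USP28-FL-His at […], preincubated 30 min with compound (10-point, 25 μM top) in Tris pH 8.0 buffer containing BGG and Triton X-100. Substrate turnover ran 45 min at room temperature and was stopped with 10 mM citric acid.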
Compound `N#Cc1c(N2CC3CCC(C2)N3)cc(F)c2c1OC[C@H](NC(=O)c1cnc3c(c1)[C@@H]1CC1CN3)C2` (stereo partly drawn) [Example 228, (6aS,7aR)-N-[(3R)-8-cyano-7-(3,8-diazabicyclo[3.2.1]octan-3-yl}-5-fluoro-3,4-dihydro-2H-1-benzopyran-3-yl]-5H,6H,6aH,7H,7aH-cyclopropa[c]1,8-naphthyridine-2-carboxamide] has an IC50 of 200 to 2000 nM.

Same assay, conditions: Ubiquitin-Rhodamine 110 assay, read-out: USP28 A-1(a) IC50 range
`Cc1ccc2c(N)c(C(=O)N[C@H]3COc4cc(N5CCNCC5)ccc4[C@@H]3C)sc2n1` (single isomer, unassigned) [Example 11-17] was tested, and the IC50 was greater than 2000 nM.
With `Cc1cnc2c(N)c(C(=O)N[C@@H]3CCc4cc(N5CCNCC5)ccc4C3)sc2n1` (single isomer, unassigned) [Example 11-20] the IC50 was 200 to 2000 nM.
`Cc1ccc2c(N)c(C(=O)N[C@H]3COc4cc(N5CCNCC5)ccc4[C@@H]3C)sc2n1` (single isomer, unassigned) [Example 11-16] showed an IC50 greater than 2000 nM.
`CN[C@@H]1CCN(c2ccc3c(c2)CC[C@H](NC(=O)c2sc4nc(C)cnc4c2N)C3)C1` (single isomer, unassigned) [Example 11-27] showed an IC50 of 50 to 200 nM.
`Cc1cnc2c(N)c(C(=O)N[C@H]3CCc4cc(N5CCNCC5)cc(F)c4C3)sc2n1` (single isomer, unassigned) [Example 11-38] was tested, and the IC50 was 50 to 200 nM.
Compound `Cc1ccc2c(N)c(C(=O)N[C@H]3CCc4c(C#N)c(N5CC6CCC(C5)N6)cc(F)c4C3)sc2n1` (single isomer, unassigned) [Example 14-17] has an IC50 of 1 to 50 nM.
Compound `Cc1ccc2c(N)c(C(=O)N[C@H]3CCc4nc(N5C[C@@H](N)[C@]6(CCOC6)C5)ccc4C3)sc2n1` [Example 438, 3-amino-N-[(6S)-2-[(5S, 9S)-9-amino-2-oxa-7-azaspiro[4.4]nonan-7-yl]-5,6,7,8-tetrahydroquinolin-6-yl]-6-methylthieno[2,3-b]pyridine-2-carboxamide] has an IC50 of 50 to 200 nM.
`Cc1cnc2c(N)c(C(=O)N[C@@H]3CCc4cc(N5CCNCC5)c(F)cc4C3)sc2n1` (single isomer, unassigned) [Example 21-11] gave an IC50 of 200 to 2000 nM.
For `Cc1cnc2c(N)c(C(=O)N[C@H]3CCc4c(ccc(N5CCNCC5)c4F)C3)sc2n1` (single isomer, unassigned) [Example 21-10], the IC50 was greater than 2000 nM.
`CN[C@@H]1CCN(c2ccc3c(c2)CC[C@@H](NC(=O)c2sc4nc(C)cnc4c2N)C3)C1` (single isomer, unassigned) [Example 11-28] showed an IC50 of 200 to 2000 nM.
Compound `Cc1ccc2c(N)c(C(=O)N[C@@H]3CCc4c(C#N)c(N5CC6CNCC(C5)O6)cc(F)c4C3)sc2n1` (single isomer, unassigned) [Example 14-16] has an IC50 of 50 to 200 nM.
`CCn1ccc2cc(C(=O)N[C@H]3CCc4nc(N5C[C@H](COC)[C@H](N)C5)ccc4C3)cnc21` (single isomer, unassigned) [Example 401] showed an IC50 of 200 to 2000 nM.
In the case of `Cc1ccc2c(N)c(C(=O)N[C@H]3CCc4c(F)c(N5CC6CCC(C5)N6)cc(F)c4C3)sc2n1` (single isomer, unassigned) [Example 22-5], the IC50 is reported as 1 to 50 nM.
In the case of `Cc1cnc2c(N)c(C(=O)N[C@H]3CCc4c(C#N)c(N5CCNCC5)cc(F)c4C3)sc2n1` (single isomer, unassigned) [Example 14-12], the IC50 is reported as 200 to 2000 nM.
`Cc1ccc2c(N)c(C(=O)N[C@H]3COc4cc(N5C[C@H](N)[C@@]6(CCOC6)C5)ccc4C3)sc2n1` (single isomer, unassigned) [Example 439] showed an IC50 of 1 to 50 nM.
With `Cc1ccc2c(N)c(C(=O)N[C@H]3CCc4c(C#N)c(N5CCNCC5)cc(F)c4C3)sc2n1` (single isomer, unassigned) [Example 14-10] the IC50 was 1 to 50 nM.
For `CCn1ccc2cc(C(=O)N[C@H]3CCc4nc(N5C[C@@H](COC)[C@@H](N)C5)ccc4C3)cnc21` (single isomer, unassigned) [Example 400], the IC50 was 200 to 2000 nM.
With `CO[C@H]1CN(c2ccc3c(c2)OC[C@H](NC(=O)c2sc4nc(C)cnc4c2N)C3)C[C@@H]1N` [Example 117] the IC50 was 1 to 50 nM.
With `Cc1cnc2c(N)c(C(=O)N[C@@H]3CCc4cc(N5C[C@H]6C[C@@H]5CN6)ccc4C3)sc2n1` (single isomer, unassigned) [Example 11-32] the IC50 was 200 to 2000 nM.
With `Cc1ccc2c(N)c(C(=O)N[C@H]3CCc4cc(N5CC6CNCC(C5)O6)cc(F)c4C3)sc2n1` (single isomer, unassigned) [Example 11-39] the IC50 was 200 to 2000 nM.
`Cc1cnc2c(N)c(C(=O)N[C@H]3CCc4cc(N5CCNCC5)c(F)cc4C3)sc2n1` (single isomer, unassigned) [Example 21-12] gave an IC50 of 1 to 50 nM.
Compound `Cc1ccc2c(N)c(C(=O)N[C@@H]3CCc4nc(N5C[C@H](CF)[C@H](N)C5)ncc4C3)sc2n1` [Example 446, 3-amino-N-[(6R)-2-[(3S,4S)-3-amino-4-(fluoromethyl)pyrrolidin-1-yl]-5,6,7,8-tetrahydroquinazolin-6-yl]-6-methylthieno[2,3-b]pyridine-2-carboxamide] has an IC50 of 200 to 2000 nM.
`Cc1cnc2c(N)c(C(=O)N[C@@H]3CCc4cc(N5CCNCC5)cc(F)c4C3)sc2n1` (single isomer, unassigned) [Example 11-37] was tested, and the IC50 was 200 to 2000 nM.
`Cc1nc2sc(C(=O)N[C@H]3CCc4c(C#N)c(N5CC6CCC(C5)N6)cc(F)c4C3)c(N)c2s1` (single isomer, unassigned) [Example 14-21] was tested, and the IC50 was 1 to 50 nM.
`[2H]C1([2H])c2c(F)cc(N3CCNCC3)cc2OC[C@H]1NC(=O)c1sc2nc(C)ccc2c1N` (single isomer, unassigned) [Example 33-2] was tested, and the IC50 was 200 to 2000 nM.
In the case of `Cc1nc2sc(C(=O)N[C@@H]3CCc4c(C#N)c(N5CCNCC5)cc(F)c4C3)c(N)c2s1` (single isomer, unassigned) [Example 14-13], the IC50 is reported as 200 to 2000 nM.
`Cc1ccc2c(N)c(C(=O)N[C@H]3CCc4c(C#N)c(N5CC6CNCC(C5)O6)cc(F)c4C3)sc2n1` (single isomer, unassigned) [Example 14-15] showed an IC50 of 1 to 50 nM.

Same assay, conditions: biochemical IC50 range, Ubiquitin-Rhodamine 110 assay, read-out: USP28 A-1(a)
In the case of `CN[C@H]1CN(c2ccc3c(c2)OC[C@H](NC(=O)c2sc4nc(C)ccc4c2N)C3)C[C@@H]1CF` [Example 662, 3-amino-N-[(3R)-7-[(3S,4R)-3-(fluoromethyl)-4-(methylamino)pyrrolidin-1-yl]-3,4-dihydro-2H-1-benzopyran-3-yl]-6-methylthieno[2,3-b]pyridine-2-carboxamide], the IC50 is reported as 1 to 50 nM.
`O=C(N[C@H]1COc2cc(N3CCNCC3)ccc2C1)c1ccc(NCc2cccc3cn[nH]c23)nc1` [Example 698, 6-{[(1H-indazol-7-yl)methyl]amino}-N-[(3R)-7-(piperazin-1-yl)-3,4-dihydro-2H-1-benzopyran-3-yl]pyridine-3-carboxamide] was tested, and the IC50 was 200 to 2000 nM.
In the case of `Cc1ccc2c(N)c(C(=O)N[C@H]3COc4cc(N5C[C@H](N)[C@@](C)(CF)C5)ccc4C3)sc2n1` [Example 659, 3-amino-N-[(3R)-7-[(3S,4R)-4-amino-3-(fluoromethyl)-3-methylpyrrolidin-1-yl]-3,4-dihydro-2H-1-benzopyran-3-yl]-6-methylthieno[2,3-b]pyridine-2-carboxamide], the IC50 is reported as 1 to 50 nM.
With `Cc1ccc2c(N)c(C(=O)N[C@H]3COc4cc(N5C[C@@H](N)[C@](C)(CF)C5)ccc4C3)sc2n1` [Example 661, 3-amino-N-[(3R)-7-[(3R,4S)-4-amino-3-(fluoromethyl)-3-methylpyrrolidin-1-yl]-3,4-dihydro-2H-1-benzopyran-3-yl]-6-methylthieno[2,3-b]pyridine-2-carboxamide] the IC50 was 1 to 50 nM.
For `CO[C@@H]1CN(c2ccc3c(c2)OC[C@H](NC(=O)c2sc4nc(C)cnc4c2N)C3)C[C@@H]1N` [Example 147, 7-amino-N-[(3R)-7-[(3S,4R)-3-amino-4-methoxypyrrolidin-1-yl]-3,4-dihydro-2H-1-benzopyran-3-yl]-3-methylthieno[2,3-b]pyrazine-6-carboxamide], the IC50 was 50 to 200 nM.
With `O=C(N[C@H]1COc2cc(N3CCNCC3)ccc2C1)c1ccc(NCc2ccc(Cl)cc2Cl)nc1` [Example 697, 6-{[(2,4-dichlorophenyl)methyl]amino}-N-[(3R)-7-(piperazin-1-yl)-3,4-dihydro-2H-1-benzopyran-3-yl]pyridine-3-carboxamide] the IC50 was 1 to 50 nM.
